The text below walks through data of PubChem BioAssay AID434987 (Southern Research Specialized Biocontainment Screening …, 2010).

The experiment relates to M. tuberculosis H37Rv growth inhibition with meropenem. Put plainly: dose response, H37Rv, with and without meropenem (AID 434987).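 Further: growth over 7 days at 37 °C before Alamar Blue read on day 9.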
[1] abbreviates: M. tuberculosis H37Rv growth inhibition, measured here: IC50 without meropenem.
Setting [2] is: M. tuberculosis H37Rv growth inhibition, measured here: IC90 without meropenem.
Setting [3] is: measured here: IC90 with meropenem.

The structures appear in SMILES notation. Calls of active or inactive are those of the source. How the calls were made is not given here. Where only a bound is given, the exact number is not on record here.

The term IC50 denotes the concentration that gives 50% inhibition. The term IC90 denotes the concentration needed for an effect of 90%. A lower IC90 goes with an effect from little substance. Take `CCOC(=O)CNC(=O)CSc1ncnc2c1cnn2Cc1ccccc1`: the IC50 is > 100 µM (inactive). In addition, the half-maximal inhibitory concentration (IC50) under setting [1] was greater than 100 µM. The compound also showed an IC90 under setting [2] greater than 100 µM. In addition, the concentration for an effect of 90% (IC90) under setting [3] was greater than 100 µM.
As for `Cc1ccc(C)c(NC(=O)C2Cc3ccccc3CN2C(=O)OCc2ccccc2)c1` (stereo not drawn), the IC50 was 71.3 µM (inactive). Under setting [1], this compound gave an IC50 of 91.3 µM. For the same compound, the concentration for an effect of 90% (IC90) under setting [2] was greater than 100 µM. Moreover, the IC90 under setting [3] is greater than 100 µM.
For the compound `C/C(=N\NC(=O)c1cc(Br)ccc1O)c1ccccn1`, the IC50 was 3.88 µM. The same compound gave an IC50 under setting [1] of 94.9 µM. Besides, the IC90 under setting [2] was greater than 100 µM. Moreover, the IC90 under setting [3] is greater than 100 µM.
Consider `O=S(=O)(Nc1cccc(-c2ccc(N3CCCCCC3)nn2)c1)c1ccccc1Cl`, for which the IC50 is 16 µM. The compound also had an IC50 under setting [1] greater than 100 µM. Also, the IC90 under setting [2] was greater than 100 µM. In addition, under setting [3], the IC90 was greater than 25 µM.
Regarding `COc1ccc(OC)c(C2CC(c3c(-c4ccccc4)c4cc(Cl)ccc4[nH]c3=O)=NN2S(C)(=O)=O)c1` (stereo not drawn), the IC50 was > 100 µM (inactive). Besides, under setting [1], the IC50 is greater than 100 µM. Further, the IC90 under setting [2] was greater than 100 µM. This compound also showed an IC90 under setting [3] greater than 100 µM.
`Cc1cc(C)c(C)c(S(=O)(=O)N2C(=S)NC(=O)C2C(C)C)c1C` (stereo not drawn): the IC50 was 10.1 µM. Under setting [1], this compound registered an IC50 of 38.5 µM. Besides, the IC90 under setting [2] was greater than 100 µM. The concentration for an effect of 90% (IC90) under setting [3] was greater than 100 µM.
For the compound `O=C1c2ccccc2N2C(=O)c3ccccc3C2N1O` (stereo not drawn), the IC50 was 13.9 µM. This compound also showed an IC50 under setting [1] of 39.3 µM. Further, the IC90 under setting [2] is greater than 100 µM. The IC90 under setting [3] turned out to be 56.4 µM.
Taken in the same sequence, the figures for `COc1ccc(CNC(=O)c2sc3nc4c(c(C(F)(F)F)c3c2N)CCC4)cc1` were 7.76 µM (inactive), 10.5 µM, greater than 25 µM and greater than 100 µM.
For `CCOC(=O)c1ccccc1NC(=O)C1COc2ccccc2O1` (stereo not drawn) the same measures were 12.1 µM, 36.2 µM, greater than 100 µM and greater than 100 µM.
As for `CC(=O)NC(=S)Nc1ccc(NC(=O)c2cccs2)cc1`, the IC50 is 48.7 µM (inactive). The compound further had an IC50 under setting [1] greater than 100 µM. Moreover, under setting [2], the IC90 is greater than 100 µM. The IC90 under setting [3] is greater than 100 µM.
For the compound `COC(=O)[C@@]1(Cc2ccc(F)cc2)[C@H]2c3cc(C(=O)N(C)C)n(Cc4ccc(OC)c(OC)c4)c3C[C@H]2CN1C(=O)c1ccccc1`, the IC50 is > 100 µM (inactive). The IC50 under setting [1] is greater than 100 µM. Moreover, the concentration for an effect of 90% (IC90) under setting [2] was greater than 100 µM. The same compound came in with an IC90 under setting [3] greater than 100 µM.
Take `CCSc1nc2ccccc2c(=O)n1CCc1ccc(OC)c(OC)c1`: the IC50 is > 100 µM (inactive). The compound further returned an IC50 under setting [1] greater than 100 µM. Moreover, the IC90 under setting [2] is greater than 100 µM. In addition, the IC90 under setting [3] was greater than 100 µM.
As for `OCCCn1c(C2CCCN2c2nc(-c3ccc(Cl)cc3)cs2)nc2cc(Cl)c(Cl)cc21` (stereo not drawn), the IC50 was > 100 µM (inactive). For the same compound, the IC50 under setting [1] was greater than 100 µM. In addition, under setting [2], the IC90 is greater than 100 µM. Besides, the IC90 under setting [3] was greater than 100 µM.
As for `CCOC(=O)COc1nc(-c2ccc(Cl)cc2)cc(-c2ccco2)c1C#N`, the IC50 was 3.82 µM. Besides, the IC50 under setting [1] was greater than 100 µM. Besides, under setting [2], the IC90 is greater than 100 µM. Moreover, under setting [3], the IC90 is greater than 100 µM.
As to `O=C(NCCC1=CCCCC1)NC1CCCCC1`, the half-maximal inhibitory concentration (IC50) was 17.8 µM. Besides, the half-inhibitory concentration (IC50) under setting [1] is greater than 100 µM. This compound showed an IC90 under setting [2] greater than 100 µM. The compound also returned a 90% effect concentration (IC90) under setting [3] greater than 50 µM.
Consider `Cc1cc(NC(=O)/C=C/c2ccccc2Cl)n(-c2nc3ccccc3[nH]2)n1`, for which the IC50 was 1.94 µM. For the same compound, the IC50 under setting [1] was greater than 100 µM. Also, the IC90 under setting [2] was greater than 100 µM. Under setting [3], this compound came in with an IC90 greater than 100 µM.
Turning to `COc1cccc(/C=N/NC(=O)c2cnccn2)c1O`, the IC50 is 2.58 µM. The same compound came in with an IC50 under setting [1] of 44.8 µM. Also, under setting [2], the IC90 is greater than 100 µM. The same compound displayed an IC90 under setting [3] of 13.9 µM.
For `Cc1ccc2c(c1)CCCN2C(=O)c1cc2ccccc2oc1=O` the same measures were 22.9 µM, greater than 100 µM, greater than 100 µM and greater than 25 µM.
Taken in the same sequence, the figures for `Cc1ccc(CN2C(=O)N/C(=C\c3ccc(-c4ccc(C(=O)O)cc4C)o3)C2=O)cc1` were 5.14 µM, 23.8 µM, greater than 100 µM and 14.7 µM.
Taken in the same sequence, the figures for `Cc1ccc(NC(=O)CCS(=O)(=O)c2cccc3nonc23)cc1` were 16.8 µM (inactive), 31.1 µM, greater than 100 µM and greater than 100 µM.
For the compound `CCC1(CC)Cc2ccccc2C(N)=C1C#N`, the IC50 was > 100 µM (inactive). The same compound had a concentration for half-maximal inhibition (IC50) under setting [1] greater than 100 µM. Further, under setting [2], the IC90 is greater than 100 µM. The same compound returned an IC90 under setting [3] greater than 100 µM.
Take `CC(=O)c1c(OC(=O)c2cccc(Cl)c2)c2ccccc2n1C`: the IC50 was 29.5 µM (inactive). The compound also registered an IC50 under setting [1] of 68.6 µM. The compound also gave an IC90 under setting [2] greater than 100 µM. Also, the 90% effect concentration (IC90) under setting [3] is greater than 100 µM.
